How the values were obtained:
[1] = test system: mouse liver cancer H22 cells; assay: Tumor suppression in liver cancer H22 cells tumor-bearing mouse model (Example 4); format: in vivo, mice of Kunming strain; conditions: 50 m/1000 PBS/injection, angulus oculi medialis vein daily, 7 times; vs PBS control, P<0.05
Experimental: To confirm the biological effects of FpAT on the growth of mice deriving tumor in mice in vivo, a tumor suppression experiment was carried out in this example using liver cancer H22 cells tumor-bearing mouse model of mice of Kunming strain and osteosarcoma S180 cells tumor-bearing mouse model of mice of Kunming strain. Forty 5-week old mice of Kunming strain purchased from Animal Center Of Chinese Academy Of Medical Sciences were inoculated subcutaneously in forelimb with mouse liver cancer H22 cells (National Institute for the Control of Pharmaceutical and Biological Products) (5×10^6/100 μl/mouse) or osteosarcoma S180 cells (National Institute for the Control of Pharmaceutical and Biological Products) (5×10^6/100 μl/mouse). On the next day after inoculation, each kind of inoculated cells were divided into 2 groups randomly with 10 mice per group. FpAT ([…]) or vehicle (the solvent for peptide) control (PBS:100 μl/injection) were injected in angulus oculi medialis vein daily, 7 times in total. The mice were sacrificed by dislocating the neck on the next day after administration was stopped, and the tumors were taken and weighed for a statistical analysis.

[2] = test system: mice liver cancer H22 cells; assay: Tumor suppression by FpAT and derivative peptides in liver cancer H22 tumor-bearing mouse model (Example 14); format: in vivo, mice of Kunming strain; conditions: peptides 50 μg/100 μl PBS/injection, angulus oculi medialis vein daily, 7 times; CTX 80 mg/KG; tumors weighed
Experimental: Ninety 5-week old mice of Kunming strain purchased from Animal Center Of Chinese Academy Of Medical Sciences were inoculated subcutaneously in forelimb with mice liver cancer H22 cells (National Institute for the Control of Pharmaceutical and Biological Products) (5×10^6/100 μl/mouse). On the next day after inoculation, each kind of inoculated cells were divided randomly into […] with 10 mice per group. FpAT (50 μg/100 μl PBS/injection) and 7 kinds of derivative peptides thereof (see Table 5 below for detailed sequence):FpAT-N3d, FpAT-N6d, FpAT-N9d, FpAT-C3d, FpAT-C6d, FpAT-C9d, FpAT-N5d-C4d, and vehicle control (PBS:100 μl/injection) were injected in angulus oculi medialis vein, with CTX (cyclophosphamide) (80 mg/KG) as positive control daily, 7 times in total. The mice were sacrificed by dislocating the neck on the next day after administration was stopped, and the tumors were taken and weighed for a statistical analysis.

[3] = test system: human lung cancer PG cells; assay: Tumor suppression in human lung cancer PG tumor-bearing nude mice model; format: in vivo, Balb/c nude mice; conditions: 50 μg/100 μl PBS/injection, angulus oculi medialis vein once every other day, 10 times; vs vehicle, P<0.05
Experimental: In order to confirm the biological effects of FpAT on the growth of human deriving tumors in nude mice in vivo, a tumor suppression experiment was carried out in this example using human gastric carcinoma BGC-823 cells tumor-bearing nude mice model, human lung cancer PG cells tumor-bearing nude mice model and human colon cancer HT-29 cells tumor-bearing nude mice model.
Twenty 5-week old Balb/c nude mice purchased from Animal Center Of Chinese Academy Of Medical Sciences were inoculated subcutaneously in forelimb with human gastric carcinoma BGC-823 cells (National Institute for the Control of Pharmaceutical and Biological Products) (5×10^6/100 μl/mouse), human lung cancer PG cells (National Institute for the Control of Pharmaceutical and Biological Products) (5×10^6/100 μl/mouse) or human colon cancer HT-29 cells (ATCC® Number: HTB-38™) (5×10^6/100 μl/mouse). On the next day after inoculation, each kind of inoculated cells were divided into 2 groups randomly with 5 mice per group. […] Observation was continued for another 20 days after administration was stopped, and during this period the long and short diameters of the tumors were measured with a vernier caliper once every three days, and the volumes of the tumor mass were calculated according to formula ½×long diameter×short diameter^2. […]

[4] = test system: tumor microvessel; assay: Tumor microvessel density (MVD) by factor VIII immunohistochemistry; format: in vivo, mice
Experimental: In order to confirm that the suppression of FpAT on tumor growth in mice in vivo is achieved by suppressing angiogenesis, an analysis of microvessel density in tumor was performed in this example by using tumor mass in Examples 4 and 5.
The tumor masses were fixed with formaldehyde, and then cut into serial section of 3 μm. The paraffin sections were dewaxed to water, and incubated in 3% H2O2 at room temperature for 10 minutes, to which rabbit anti-human factor VIII polyclonal antibody (DAKO company) was added dropwise, and after left at 4° C. overnight; 1:200 sheep anti-rabbit IgG labeled with biotin (Beijing ZhongShan bioengineering Company) was added dropwise, and incubated at 37° C. for 30 minutes. […] Then a visual field with most interstitial blood vessels of cancer nest was chosen, and under a ×400 magnitude field, 3 visual fields were counted by 3 observers individually according to double blind method; wherein individual cells and cell clusters stained brown were observed and taken as one blood vessel, whereas blood vessel cavities and erythrocytes therein were not counted, and blood vessel or vessel cavities in muscular layer larger than 50 μm were excluded. The average value of numbers counted by 3 individuals was taken as MVD (microvessel density) result of this case for a statistics analysis, see Table 4.

[5] = test system: chick chorioallantoic membrane vessel; assay: Proliferation of chick chorioallantoic membrane vessel; conditions: 10 μl of 1 μg/μL on glass fiber filter membrane, 24 hours
Experimental: In this example an experiment of proliferation of chick chorioallantoic membrane vessel was carried out to test suppressing effects of FpAT on angiogenesis.
The test was performed according to the method described in the reference “Fu Shengfa, Lu yinglin, Zhang Chaoshan et al., A chick chorioallantoic membrane technique to test function of vascular growth factors, Bulletin of the Academy of Military Medical Sciences 1993, 17:294-97”. Fresh fertilized hen eggs were immersed into 0.1% benzalkonium bromide solution at 38° C. for 2 minutes, and then incubated in an incubator at 37.5° C. in a humidity of 60-70% for 3 days. Then the eggs with shell removed were transferred to plate and cultured. The samples were separated into groups and administered when the allantoic membrane grew to about 2 cm^2, 5 chicken embryos per group. 10 μl of FpAT (1 μg/μL), PBS (negative control) was dropped on a glass fiber filter membrane of Φ4 mm, which was placed at distal end of chorioallantoic membrane, and cultured for 24 hours. The results were observed and recorded by taking photos. The experiment was repeated twice.

Substance: H2N-Asp-Ser-Gly-Glu-Gly-Asp-Phe-Leu-Ala-Glu-Gly-Gly-Gly-Val-Arg-COOH (H-DSGEGDFLAEGGGVR-OH; listed as Homo sapiens) [FpAT, fibrinopeptide A truncated, carboxyl terminal 15 amino acids of fibrinopeptide A]
- growth of mouse liver cancer H22 cells in vivo (tumor mass) [1]: could suppressed the growths
- tumor suppressing rate [2]: 65.4%
- growth of human lung cancer PG cells in nude mice (tumor mass) [3]: could suppress the growths
- MVD ([4]; tumor mass of Examples 4 and 5, 20 visual fields observed totally, PBS group 6.4): 2.6 Number of micro vessel/visual field
- growth of microvessel in tumor tissue ([4]; vs PBS control group, P<0.05): suppressed significantly the growth of microvessel
- blood vessel distribution and original blood vessel [5]: inducing disorder of blood vessel distribution and atrophy of original blood vessel
- blood vessel formation [5]: suppressing remarkably blood vessel formation
